Reference: ChEMBL document CHEMBL4651402, “Screening of ~5500 FDA-approved drugs and clinical candidates for anti-SARS-CoV-2 activity” (2021)
Numbered stars: 1 amine (or outer) side, 2 acyl side, 3 side chain; on linkers, the order of the positions; unused ones are H or OH. Bridge positions count the residues as written; N and C are the ends. Square brackets hold non-standard residues; d marks the D form. Peptide text beside a SMILES is read from it. * marks the point of attachment. X1 = NC1=N[C@@H]([C@H](N[*:1])C(=O)[*:2])C[C@H](O)N1; ΔAla(Z-3-ureido) = NC(=O)N/C=C(\N)C(=O)O; β3hOrn = NCCC[C@H](N)CC(=O)*; Dap = NC[C@H](N)C(=O)O

Tested on: SARS-CoV-2
Assay: microbe, parasite or virus in culture
Conditions: Severe acute respiratory syndrome coronavirus 2, Vero C1008, 48 h

CC[C@]1(O)C[C@H]2CN(CCc3c([nH]c4ccccc34)[C@@](C(=O)OC)(c3cc4c(cc3OC)N(C=O)[C@H]3[C@@](O)(C(=O)OC)[C@H](OC(C)=O)[C@]5(CC)C=CCN6CC[C@]43[C@@H]65)C2)C1 [VINCRISTINE]
IC50: > 20 µM | IC50 (read-out: pIC50 (converted)): > 20 µM

CC[C@]1(O)C[C@@H]2CN(CCc3c([nH]c4ccccc34)[C@@](C(=O)OC)(c3cc4c(cc3OC)N(C)[C@H]3[C@@](O)(C(N)=O)[C@H](O)[C@]5(CC)C=CCN6CC[C@]43[C@@H]65)C2)C1 [VINDESINE]
IC50: > 20 µM | IC50 (read-out: pIC50 (converted)): > 20 µM

CCOC(=O)C1=C[C@]2(CC)CCCN3CCc4c(n1c1ccccc41)[C@@H]32 [VINPOCETINE]
IC50: > 20 µM | IC50 (read-out: pIC50 (converted)): > 20 µM

NCCC[C@H](N)CC(=O)N[C@H]1CNC(=O)[C@H]([C@H]2C[C@H](O)NC(N)=N2)NC(=O)/C(=C/NC(N)=O)NC(=O)[C@H](CO)NC(=O)[C@H](CO)NC1=O [VIOMYCIN] (β3hOrn-[Dap]SS[ΔAla(Z-3-ureido)][X1]; lactam 1-C)
IC50: > 20 µM | IC50 (read-out: pIC50 (converted)): > 20 µM

CC(C)S(=O)(=O)n1c(N)nc2ccc(C(=NO)c3ccccc3)cc21 [VIROXIME]
IC50: > 20 µM | IC50 (read-out: pIC50 (converted)): > 20 µM

CS(=O)(=O)c1ccc(C(=O)Nc2ccc(Cl)c(-c3ccccn3)c2)c(Cl)c1 [VISMODEGIB]
IC50: > 20 µM | IC50 (read-out: pIC50 (converted)): > 20 µM

COc1c2ccoc2cc2oc(C)cc(=O)c12 [VISNAGIN]
IC50: > 20 µM | IC50 (read-out: pIC50 (converted)): > 20 µM

CNC(=O)c1cccc(-c2ccc3c(N4CCOC[C@@H]4C)nc(N4CCOC[C@@H]4C)nc3n2)c1 [VISTUSERTIB]
IC50: > 20 µM | IC50 (read-out: pIC50 (converted)): > 20 µM

N#CC(O[C@@H]1O[C@H](CO[C@@H]2O[C@H](CO)[C@@H](O)[C@H](O)[C@H]2O)[C@@H](O)[C@H](O)[C@H]1O)c1ccccc1 (stereo partly drawn) [VITAMIN B17]
IC50: > 20 µM | IC50 (read-out: pIC50 (converted)): > 20 µM

COc1cccc([C@H](O)C2CCN(CCc3ccc(F)cc3)CC2)c1OC [VOLINANSERIN]
IC50: > 20 µM | IC50 (read-out: pIC50 (converted)): > 20 µM

C[C@@H](c1ncncc1F)[C@](O)(Cn1cncn1)c1ccc(F)cc1F [VORICONAZOLE]
IC50: > 20 µM | IC50 (read-out: pIC50 (converted)): > 20 µM

Cc1nnnn1N=Cc1ccc(O)c(C(c2ccc(O)cc2)c2cc(C=Nn3nnnc3C)ccc2O)c1 (stereo not drawn) [VP-14637]
IC50: > 20 µM | IC50 (read-out: pIC50 (converted)): > 20 µM

COC(=O)/C(=C1/OC(=O)C(c2ccccc2)=C1O)c1ccccc1 [VULPINIC ACID]
IC50: > 20 µM | IC50 (read-out: pIC50 (converted)): > 20 µM

CC(C)OC(=O)[C@H](C)NP(=S)(OC[C@H]1O[C@@H](n2ccc(=O)[nH]c2=O)[C@](C)(O)[C@@H]1O)Oc1ccccc1 (stereo partly drawn) [VX-135]
IC50: > 20 µM | IC50 (read-out: pIC50 (converted)): > 20 µM

NC(=O)c1ccc(N(C(N)=O)c2c(F)cccc2F)nc1-c1ccc(F)cc1F [VX-702]
IC50: > 20 µM | IC50 (read-out: pIC50 (converted)): > 20 µM

CC(=O)CC(c1ccccc1)c1c(O)c2ccccc2oc1=O (stereo not drawn) [WARFARIN]
IC50: > 20 µM | IC50 (read-out: pIC50 (converted)): > 20 µM

Cc1cc(CCCCCOc2c(Cl)cc(C3=NCCO3)cc2Cl)on1 [WIN-54954]
IC50: > 20 µM | IC50 (read-out: pIC50 (converted)): > 20 µM

FC(F)(F)c1cccc(C2=CCN(CCc3ccc4ccccc4c3)CC2)c1 [XALIPRODEN]
IC50: > 20 µM | IC50 (read-out: pIC50 (converted)): > 20 µM

O=C(NCCNCC(O)COc1ccc(O)cc1)N1CCOCC1 (stereo not drawn) [XAMOTEROL]
IC50: > 20 µM | IC50 (read-out: pIC50 (converted)): > 20 µM

CCCCCCOc1nsnc1C1=CCCN(C)C1 [XANOMELINE]
IC50: > 20 µM | IC50 (read-out: pIC50 (converted)): > 20 µM

CN(CCO)CC(O)Cn1cnc2c1c(=O)n(C)c(=O)n2C (stereo not drawn) [XANTHINOL]
IC50: > 20 µM | IC50 (read-out: pIC50 (converted)): > 20 µM

COc1cc(O)c(C(C)=O)c(OC)c1 [XANTHOXYLIN]
IC50: > 20 µM | IC50 (read-out: pIC50 (converted)): > 20 µM

O=C(O)c1cc(O)c2cccc(O)c2n1 [XANTHURENATE]
IC50: > 20 µM | IC50 (read-out: pIC50 (converted)): > 20 µM

CCC(C(=O)O)c1ccc(-c2ccccc2)cc1 (stereo not drawn) [XENBUCIN]
IC50: > 20 µM | IC50 (read-out: pIC50 (converted)): > 20 µM

Cc1cccc(C)c1NC(=O)c1cc(S(N)(=O)=O)c(Cl)cc1O [XIPAMIDE]
IC50: > 20 µM | IC50 (read-out: pIC50 (converted)): > 20 µM

Cc1cccc(C)c1NC1=NCCCS1 [XYLAZINE]
IC50: > 20 µM | IC50 (read-out: pIC50 (converted)): > 20 µM

OC[C@@H](O)[C@H](O)[C@@H](O)CO [XYLITOL]
IC50: > 20 µM | IC50 (read-out: pIC50 (converted)): > 20 µM

Cc1cc(C(C)(C)C)cc(C)c1CC1=NCCN1 [XYLOMETAZOLINE]
IC50: > 20 µM | IC50 (read-out: pIC50 (converted)): > 20 µM

C[C@@H](N)c1ccc(C(=O)Nc2ccnc3[nH]ccc23)cc1 [Y-39983]
IC50: > 20 µM | IC50 (read-out: pIC50 (converted)): > 20 µM

O=c1[nH]c2cc(-n3ccnc3)c([N+](=O)[O-])cc2[nH]c1=O [YM-90K]
IC50: > 20 µM | IC50 (read-out: pIC50 (converted)): > 20 µM

O=C(O)[C@@H]1[C@H]2C[C@H]3c4[nH]c5ccccc5c4CCN3C[C@@H]2CC[C@@H]1O [YOHIMBIC ACID]
IC50: > 20 µM | IC50 (read-out: pIC50 (converted)): > 20 µM

COC(=O)[C@@H]1[C@H]2C[C@H]3c4[nH]c5ccccc5c4CCN3C[C@@H]2CC[C@@H]1O [YOHIMBINE]
IC50: > 20 µM | IC50 (read-out: pIC50 (converted)): > 20 µM

O=C(CC(c1ccccc1)c1ccccc1)N1CCN(C(c2ccccc2)c2ccccc2)CC1 [Z160]
IC50: > 20 µM | IC50 (read-out: pIC50 (converted)): > 20 µM

COc1cc(N)c(Cl)cc1C(=O)NC1CN2CCC1CC2 (stereo not drawn) [ZACOPRIDE]
IC50: > 20 µM | IC50 (read-out: pIC50 (converted)): > 20 µM

COc1cc(C(=O)NS(=O)(=O)c2ccccc2C)ccc1Cc1cn(C)c2ccc(NC(=O)OC3CCCC3)cc12 [ZAFIRLUKAST]
IC50: > 20 µM | IC50 (read-out: pIC50 (converted)): > 20 µM

Nc1ccn([C@H]2CC[C@@H](CO)O2)c(=O)n1 [ZALCITABINE]
IC50: > 20 µM | IC50 (read-out: pIC50 (converted)): > 20 µM

CC1(CN2CCC(n3c(=O)[nH]c4ccccc43)CC2)OCc2ccccc2-n2cccc21 (stereo not drawn) [ZALDARIDE]
IC50: > 20 µM | IC50 (read-out: pIC50 (converted)): > 20 µM

Cc1ncc(-c2csc(N=C(N)N)n2)[nH]1 [ZALTIDINE]
IC50: > 20 µM | IC50 (read-out: pIC50 (converted)): > 20 µM

CC(=O)N[C@H]1[C@H]([C@H](O)[C@H](O)CO)OC(C(=O)O)=C[C@@H]1NC(=N)N [ZANAMIVIR]
IC50: > 20 µM | IC50 (read-out: pIC50 (converted)): > 20 µM

C#C[C@]1(O)CC[C@H]2[C@@H]3CC[C@H]4Cc5nn(S(C)(=O)=O)cc5C[C@]4(C)[C@H]3CC[C@@]21C [ZANOTERONE]
IC50: > 20 µM | IC50 (read-out: pIC50 (converted)): > 20 µM

C=CC(=O)N1CCC([C@@H]2CCNc3c(C(N)=O)c(-c4ccc(Oc5ccccc5)cc4)nn32)CC1 [ZANUBRUTINIB]
IC50: > 20 µM | IC50 (read-out: pIC50 (converted)): > 20 µM

CCCOc1ccccc1-c1nc2[nH]nnc2c(=O)[nH]1 [ZAPRINAST]
IC50: > 20 µM | IC50 (read-out: pIC50 (converted)): > 20 µM

COc1cc(-c2ccc(=O)[nH]n2)ccc1OC(F)F [ZARDAVERINE]
IC50: > 20 µM | IC50 (read-out: pIC50 (converted)): > 20 µM

COc1ccc(CCN(C)CCCN2CCc3cc(OC)c(OC)cc3CC2=O)cc1OC [ZATEBRADINE]
IC50: > 20 µM | IC50 (read-out: pIC50 (converted)): > 20 µM

C[C@H](NC(=O)Cn1nnc2ccccc2c1=O)c1ccc(OC(F)(F)F)cc1 [ZELATRIAZIN]
IC50: > 20 µM | IC50 (read-out: pIC50 (converted)): > 20 µM

Cc1ccc(OCC(O)C(C)NC(C)C)c2c1CCC2 (stereo not drawn) [ZENIDOLOL]
IC50: > 20 µM | IC50 (read-out: pIC50 (converted)): > 20 µM

C[C@H]1CCC[C@H](O)CCCCCc2cc(O)cc(O)c2C(=O)O1 [ZERANOL]
IC50: > 20 µM | IC50 (read-out: pIC50 (converted)): > 20 µM

Cc1cn([C@H]2C[C@H](N=[N+]=[N-])[C@@H](CO)O2)c(=O)[nH]c1=O [ZIDOVUDINE]
IC50: > 100 µM | IC50 (read-out: pIC50 (converted)): > 100 µM

CC(c1cc2ccccc2s1)N(O)C(N)=O (stereo not drawn) [ZILEUTON]
IC50: > 20 µM | IC50 (read-out: pIC50 (converted)): > 20 µM
